Experimental findings from US8409560B2, “Solid dispersion formulations and methods of use thereof” (Zalicus Pharmaceuticals Ltd., priority 2011, dated 2013) are described below.

Each structure is given as a SMILES string. Read-outs that look alike come from different tables or passages of the source.

Data set [1] in a line: Dissolution of solid dispersions, gastric-to-FaSSIF media transition at 13 minutes. In kind it is physicochemical. The conditions noted are these: unformulated; pH 1.0-to-6.5. The method, then:
FIGS. 1A-1H are graphs showing the dissolution rate in gastric media for solid dispersion formulations having 20% (w/w) loading of compound 1 and a gastric-to-FaSSIF (pH 1.0-to-6.5) media transition at 13 minutes. […]
Various formulations were tested to reduce precipitation. As shown in FIGS. 1A-1H, solubility was measured for the following formulations: carboxymethylethyl cellulose (CMEC, FIG. 1A), cellulose acetate phthalate (CAP, FIG. 1B), hydroxypropylmethyl cellulose acetate succinate M grade (HPMCAS-M, FIG. 1C), polyvinyl acetate phthalate (PVAP, FIG. 1D), methacrylic acid-methyl methacrylate copolymer (Eudragit® L 100, FIG. 1E), polyethylene glycol-polyvinylcaprolactam-polyvinylacetate copolymer (Soluplus®, FIG. 1F), hydroxypropylmethyl cellulose phthalate (HPMCP-H55, FIG. 1G), and polyvinylpyrrolidone vinylacetate copolymer (PVP-VA, FIG. 1H). […]
Further tests were conducted with different % loading of compound 1. Dissolution rates were measured for formulations have 35% (w/w) loading (FIGS. 2A-2C) and 50% (w/w) loading (FIGS. 3A-3D). CAP, HPMCAS-M, Eudragit® L 100, and PVAP were further analyzed for these tests. […]

Data set [2] is described as follows: Caco-2 apparent intestinal permeability. To be noted: for recovery at 60 min, 1 μM: read-out: Percent Recovery. In kind it is in vitro ADME. The source says: (§1) Absorption of particular drugs may be limited by biological factors, such as reduced cellular permeability in the intestine. Many cellular mechanisms can influence permeability, such as reduced passive paracellular and transcellular transport or increased active export by the efflux transporter protein P-glycoprotein. Thus, the use of self-emulsifying carriers may not be beneficial for drugs having limited cellular permeability, where methods to increase the solubilization of a drug may not increase its permeability in the gastrointestinal tract. Experiments were conducted to assess the apparent intestinal permeability of compound 1 using a Caco-2 cell model.
(§2) Briefly, Caco-2 cells were used as an in vitro model for predicting absorption through the intestinal epithelium. Confluent monolayers of Caco-2 cells were grown on collagen-coated, microporous, polycarbonate membranes (12-well Costar Transwell® plates) that are placed between two chambers. The apical side of the monolayer was exposed to the buffer solution in a first chamber, but the basolateral side of the monolayer adhered to microporous membranes fluidically connected to a second chamber. The dosing solution was added to the first chamber for measurements in the apical-to-basolateral direction (A-to-B) and to the second chamber for measurements in the basolateral-to-apical direction (B-to-A). […] The permeability assay buffer was Hanks Balanced Salt Solution containing 10 mM HEPES and 15 mM glucose at a pH of 7.4. The buffer in the receiver chamber also contained 1% bovine serum albumin. The dosing solution concentration was 1 μM of compound 1 in the assay buffer. All donor chambers were first pre-incubated for five minutes with dosing solution to attempt to saturate any non-specific binding sites on the device with test compound. After five minutes, the solution was removed and replaced with fresh dosing solution, and time was recorded as 0. Cell monolayers were dosed on the apical side/first chamber (for A-to-B measurements) or basolateral side/second chamber (for B-to-A measurements) and incubated at 37° C. with 5% CO2 in a humidified incubator. At 30 and 60 minutes, aliquots were taken from the receiver chambers and replaced with fresh assay buffer. Samples were taken from the donor chamber at 0 and 60 minutes. Each experiment was performed in triplicate.
(§3) The apparent permeability (Papp), percent recovery, and efflux ratio were calculated as follows:
(§4) [formula] [formula] where
(§5) [formula] is the slope of the cumulative concentration in the receiver chamber as a function of time; Vr [cm^3] is the volume of the receiver chamber; Vd [cm^3] is the volume of the donor chamber; A [cm^2] is the area of the cell monolayer, which is estimated to be about 1.13 cm^2 for the 12-well Costar Transwell® plates; C0 [μM] is the measured concentration in the donor chamber at t=0 hours; CN [μM] is the nominal concentration of the dosing solution; Cr final [μM] is the cumulative concentration in the receiver chamber at the end of the incubation period; and Cd final [μM] is the cumulative concentration in the donor chamber at the end of the incubation period.
(§6) Thus, absorption of compound 1 in humans is not expected to be permeability limited.
For orientation: Passage across Caco-2 layers is used to estimate intestinal permeability.

For the next data set, the system named is Caco-2 cells. The experiment in a line: Caco-2 apparent intestinal permeability. The format is in vitro ADME. The conditions noted are these: for Papp, replicates R1-R3: 1 μM.
From the text: as §1, §2, §3, §4, §5, §6

Regarding `O=C(CC(c1ccccc1)c1ccccc1)N1CCN(C(c2ccccc2)c2ccccc2)CC1` [Compound 1, 1-(4-benzhydrylpiperazin-1-yl)-3,3-diphenylpropan-1-one], the “behaviour in FaSSIF media following exposure to gastric media” value in data set [1] is given as “rapidly precipitated”. The recovery at 60 min, 1 μM in data set [2] (Caco-2, pH 7.4, Cell-free) was determined as 54%; in data set [2] (human, Caco-2, pH 7.4, A-to-B) it was 28%; in data set [2] (human, Caco-2, pH 7.4, B-to-A), 37%. Further, the Papp A→B at 60 min, 1 μM in data set [2] (human, Caco-2, pH 7.4, A-to-B, read-out: Papp Avg.) turned out to be 5.15 ×10⁻⁶ cm/s; in data set [2] (human, Caco-2, pH 7.4, A-to-B, read-out: Papp, replicates R1-R3) it was 4.37 ×10⁻⁶ cm/s. For the same compound, the Papp B→A at 60 min, 1 μM came to 4.32 ×10⁻⁶ cm/s in data set [2] (human, Caco-2, pH 7.4, B-to-A, read-out: Papp Avg.) and 5.04 ×10⁻⁶ cm/s in data set [2] (human, Caco-2, pH 7.4, B-to-A, read-out: Papp, replicates R1-R3). Besides, in data set [2] (human, Caco-2, pH 7.4, read-out: Efflux Ratio (Papp(B-to-A)/Papp(A-to-B))), the efflux ratio at 60 min, 1 μM worked out at 0.8. Also, the “Papp, replicates R1-R3” value in the data set with Caco-2 cells (A-to-B) is 4.31 10^−6 cm/s; in the data set with Caco-2 cells (B-to-A) it was 3.48 10^−6 cm/s. In addition, the permeability classification result in the data set with Caco-2 cells (Papp(A-to-B) more than 1.0×10^−6 cm/s) is recorded as “high permeability coefficient”. Besides, the efflux significance entry with Caco-2 cells (efflux ratio of less than 3) is recorded as “not considered significant”.
